Assays:
Renin [1] = target: T1, Renin (Homo sapiens, UniProt P00797); experiment: Inhibition of trypsin-activated human recombinant renin
T1 sequence (P00797 whole entry): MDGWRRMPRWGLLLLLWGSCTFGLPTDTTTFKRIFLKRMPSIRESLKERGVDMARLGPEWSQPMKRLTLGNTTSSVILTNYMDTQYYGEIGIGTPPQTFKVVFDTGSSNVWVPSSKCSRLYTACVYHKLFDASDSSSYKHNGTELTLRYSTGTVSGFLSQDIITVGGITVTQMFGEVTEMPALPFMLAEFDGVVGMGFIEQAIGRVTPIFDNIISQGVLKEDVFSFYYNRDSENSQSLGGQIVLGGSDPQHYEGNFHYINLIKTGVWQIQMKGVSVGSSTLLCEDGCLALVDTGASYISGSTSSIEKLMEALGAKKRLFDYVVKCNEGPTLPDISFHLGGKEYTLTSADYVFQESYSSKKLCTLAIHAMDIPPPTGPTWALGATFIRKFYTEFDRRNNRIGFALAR

Renin [2] = target: T1, Renin; experiment: Inhibition of human recombinant renin assessed as decrease in plasma renin activity by competitive radioimmunoassay in presence of human plasma
[3] = Cmax in rat at 10 mg/kg, po; format: ADME, organism-based; design: dose 10 mg/kg, route oral; conditions: in vivo
[4] = Tmax in rat at 10 mg/kg, po; format: ADME, organism-based; design: dose 10 mg/kg, route oral; conditions: in vivo
Rattus norvegicus [5] = experiment: (§1) AUC (0 to t) in rat at 10 mg/kg, po; format: ADME, organism-based, Plasma; design: dose 10 mg/kg, route oral; conditions: in vivo
[6] = Half life in rat at 10 mg/kg, po; format: ADME, organism-based; design: dose 10 mg/kg, route oral; conditions: in vivo
[7] = Volume of distribution at steady state in rat at 10 mg/kg, po or 2 mg/kg, iv; format: ADME, organism-based; conditions: in vivo, read-out: Vdss
Rattus norvegicus [8] = experiment: (§2) Oral bioavailability in rat at 10 mg/kg; format: ADME, organism-based; conditions: in vivo
[9] = as §1; format: ADME, organism-based, Plasma; design: dose 10 mg/kg, route oral; conditions: plasma
[10] = Clearance in rat at 2 mg/kg, iv; format: ADME, organism-based; design: dose 2 mg/kg, route intravenous; conditions: in vivo
[11] = as §2; format: ADME, organism-based; conditions: in vivo

Row | Structure (SMILES) | IC50 (Renin [1]) [nM] | IC50 (Renin [2]) [nM] | other results
1 | CNC[C@H](CC1CCCCC1)NC(=O)N1CCC[C@@H]([C@@](O)(CCCNC(=O)C2CC2)c2cccc(Cl)c2)C1 | 17 | 79 | 
2 | CNC[C@H](CC1CCCCC1)NC(=O)N1CCC[C@@H]([C@@](O)(CCCNC(N)=O)c2cccc(Cl)c2)C1 | 31 | 200 | 
3 | CNC[C@H](CC1CCCCC1)NC(=O)N1CCC[C@@H]([C@@H](OCCNC(=O)OC)c2cc(Cl)ccc2F)C1 | 0.62 | 2.1 | 
4 | CCOCCCO[C@@H](c1ccccc1)[C@@H]1CCCN(C(=O)N[C@H](CNC)CC2CCCCC2)C1 |  |  | AUC(0-t) [9]: 832 ng·h/mL; half-life [6]: 5.9 h
5 | CNC[C@H](CC1CCCCC1)NC(=O)N1CCC[C@@H]([C@@](O)(CCCNC(=O)NC)c2cccc(Cl)c2)C1 | 46 | 141 | 
6 | CNC[C@H](CC1CCCCC1)NC(=O)N1CCC[C@@H]([C@@](O)(CCCNS(C)(=O)=O)c2cccc(Cl)c2)C1 | 177 |  | 
7 | CNC[C@H](CC1CCCCC1)NC(=O)N1CCC[C@@H]([C@@H](OCCNC(=O)OC)c2cccc(F)c2F)C1 | 1.7 | 6.2 | 
8 | CNC[C@H](CC1CCCCC1)NC(=O)N1CCC[C@@H]([C@@](O)(CCCNS(N)(=O)=O)c2cccc(Cl)c2)C1 | 46 | 297 | 

More lines, in order of falling IC50 (Renin [1]), values ahead:

Row | IC50 (Renin [1]) [nM] | IC50 (Renin [2]) [nM] | Structure (SMILES) | other results
9 | 0.59 | 1.8 | CNC[C@H](CC1CCCCC1)NC(=O)N1CCC[C@@H]([C@@H](OCCNC(=O)OC)c2cccc(F)c2)C1 | Cmax [3]: 123 ng/mL; Tmax [4]: 2 h; AUC(0-t) [9]: 380 ng·h/mL; half-life [6]: 12.7 h; clearance [10]: 58 mL/min/kg; Vd [7]: 61 L/kg; bioavailability [11]: 22.1%
10 | 0.58 | 3.3 | COC(=O)NCCO[C@@H](c1cccc(F)c1)[C@@H]1CCCN(C(=O)N[C@H](CN)CC2CCCCC2)C1 | 
11 | 0.52 | 1.5 | CNC[C@H](CC1CCCCC1)NC(=O)N1CCC[C@@H]([C@@H](OCCNC(=O)OC)c2cc(F)cc(Cl)c2)C1 | Cmax [3]: 54 ng/mL; Tmax [4]: 4 h; AUC (Rattus norvegicus [5]): 166 ng·h/mL; half-life [6]: 7.2 h; Vd [7]: 38 L/kg; F (Rattus norvegicus [8]): 13.1%
12 | 0.48 | 2.6 | COC(=O)NCCO[C@@H](c1cccc(Cl)c1)[C@@H]1CCCN(C(=O)N[C@H](CN)CC2CCCCC2)C1 | Cmax [3]: 63 ng/mL; Tmax [4]: 4 h; AUC(0-t) [9]: 201 ng·h/mL; half-life [6]: 7.8 h; clearance [10]: 53 mL/min/kg; Vd [7]: 51 L/kg; bioavailability [11]: 7.2%
13 | 0.47 | 4 | CNC[C@H](CC1CCCCC1)NC(=O)N1CCC[C@@H]([C@@H](OCCNC(=O)OC)c2cccc(C)c2)C1 | 
14 | 0.23 | 1.2 | CNC[C@H](CC1CCCCC1)NC(=O)N1CCC[C@@H]([C@@H](OCCNC(=O)OC)c2cc(F)cc(F)c2)C1 | 

Source: ChEMBL document CHEMBL1153179, “Optimization of orally bioavailable alkyl amine renin inhibitors” (Bioorg Med Chem Lett, 2010)
